Test results: patent publication US20250073184A1, “CANNABIGEROQUINONE COMPOUNDS, COMPOSITIONS INCLUDING SUCH COMPOUNDS, AND USES OF SUCH COMPOUNDS AND COMPOSITIONS” (Juva Life, Inc., priority 2021, published 2025)
pIC50: −log10 of the molar value.

How the values were obtained:
[1] = molecular target: T1, cannabinoid receptor 1 (CNR1) (Homo sapiens, UniProt P21554); assay: CB1 receptor agonist assay (cAMP Hunter eXpress, CNR1 CHO-K1 cells); format: cell-based; conditions: agonist mode, Forskolin-stimulated cAMP
T1 construct: host or cells: CHO-K1
T1 sequence (P21554 whole entry): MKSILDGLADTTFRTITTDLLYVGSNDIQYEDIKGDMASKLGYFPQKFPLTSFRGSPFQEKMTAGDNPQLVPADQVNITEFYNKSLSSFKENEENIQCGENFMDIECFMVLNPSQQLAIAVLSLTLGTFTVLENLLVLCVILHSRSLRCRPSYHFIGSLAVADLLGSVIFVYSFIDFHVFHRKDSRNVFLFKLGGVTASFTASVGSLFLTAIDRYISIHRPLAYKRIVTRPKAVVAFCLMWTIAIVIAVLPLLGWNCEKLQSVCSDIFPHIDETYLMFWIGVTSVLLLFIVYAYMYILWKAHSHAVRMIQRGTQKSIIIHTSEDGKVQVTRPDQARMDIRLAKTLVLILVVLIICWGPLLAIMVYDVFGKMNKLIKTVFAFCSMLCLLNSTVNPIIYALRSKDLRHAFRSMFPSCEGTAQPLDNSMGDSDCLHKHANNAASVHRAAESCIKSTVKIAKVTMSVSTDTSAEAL
Experimental: (§1) The assays were performed in cAMP Hunter eXpress cells engineered to overexpress naturally Gi/Go-coupled wildtype cannabinoid receptor 1 (CNR1) or cannabinoid receptor 2 (CNR2) in CHO-K1 cell type. In these cells, CB1 and/or […] agonists inhibit production of intracellular cAMP in response to stimulation with Forskolin. cAMP levels are determined using luminogenic detection reagents provided with the Hunter eXpress cAMP detection kit.
(§2) • Assay ready CNR1 CHO-K1 cells were obtained from Eurofins/Discover X, cat #95-0071E2 • Assay ready CNR2 CHO-K1 cells were obtained from Eurofins/Discover X, cat #95-0183E2 • Hunter eXpress cAMP detection kit was also from Discover X. The kit includes all cAMP detection reagents, Forskolin, complete cell plating medium and cell assay buffer.
The Assay-Ready CNR1 CHO-K1 or CNR2 CHO-K1 cells were thawed and re-suspended in pre-warmed Assay Complete plating medium and inoculated into 96 well plate at a density of 30,000 cells in 100 μL. The plates with cells were incubated for 24 h at 37° C. in 5% CO2. […] The cells were stimulated with the Forskolin/compound buffer for 30 min. […] The plate was read on Biotek Synergy Neo2 reader in luminescent mode. […] Relative luminescence units (RLUs) were plotted against compound concentration to determine apparent EC50 values of the agonist compounds.

[2] = molecular target: T2, cannabinoid receptor 2 (CNR2) (Homo sapiens, UniProt P34972); assay: CB2 receptor agonist assay (cAMP Hunter eXpress, CNR2 CHO-K1 cells); format: cell-based
T2 construct: host or cells: CHO-K1
T2 sequence (P34972 whole entry): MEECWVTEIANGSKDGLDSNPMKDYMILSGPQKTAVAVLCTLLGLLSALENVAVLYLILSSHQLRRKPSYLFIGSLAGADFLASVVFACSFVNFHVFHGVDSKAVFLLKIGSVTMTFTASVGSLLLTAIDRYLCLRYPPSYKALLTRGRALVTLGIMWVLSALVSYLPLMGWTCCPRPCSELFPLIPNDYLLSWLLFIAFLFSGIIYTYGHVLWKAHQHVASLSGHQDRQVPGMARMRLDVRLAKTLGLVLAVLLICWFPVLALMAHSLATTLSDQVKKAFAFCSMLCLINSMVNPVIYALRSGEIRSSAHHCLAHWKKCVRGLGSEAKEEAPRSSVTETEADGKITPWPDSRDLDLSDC
Experimental: as §1, §2
The Assay-Ready CNR1 CHO-K1 or CNR2 CHO-K1 cells were thawed and re-suspended in pre-warmed Assay Complete plating medium and inoculated into 96 well plate at a density of 30,000 cells in 100 μL. The plates with cells were incubated for 24 h at 37° C. in 5% CO2. […] The cells were stimulated with the Forskolin/compound buffer for 30 min. After stimulation, 15 μL of cAMP antibody reagent and 60 μL of cAMP working detection solution were added to the cells and, the cells were incubated for 1 h at room temperature. After 1 h incubation, 60 μL of cAMP Solution A was added to the wells and the plate was incubated for 3 h at room temperature. The plate was read on Biotek Synergy Neo2 reader in luminescent mode. CB1 and CB2 agonists should reduce cAMP production in response to Forskilin. Relative luminescence units (RLUs) were plotted against compound concentration to determine apparent EC50 values of the agonist compounds.

[3] = tested on: SK-MEL-28 melanoma cell line; assay: SK-MEL-28 cell line toxicity (Cell titer Glo viability); format: cell-based; conditions: SK-MEL-28, 72 h
Experimental: (§3) Culture medium were purchased from ATCC, USA.
• General cell culture reagents and plastic. • 384-Well Flat white Poly-styrene TC-Treated Microplates (Corning). • 384 well poly-propylene plates (acoustic grade, Labcyte) for compound dilution. • Cell titer Glo luminescent Cell Viability reagent (Cat #G7571, Promega).
(§4) 90 nL DMSO is added to control wells. […] Luminescence was then recorded using Synergy Neo2Multi-mode Reader.

[4] = tested on: PC3 prostate adenocarcenoma cell line; assay: PC3 cell line toxicity (Cell titer Glo viability); format: cell-based; conditions: PC3, 72 h
Experimental: as §4, §3

[5] = tested on: HL-60 acute promyelocytic leukemia cell line; assay: HL-60 cell line toxicity (Cell titer Glo viability); conditions: HL-60, 72 h
Experimental: The half maximal inhibition concentration (IC50) for each compound was determined by harvesting cells during the logarithmic growth period and then counting cell number using hemocytometer. […] Then, using a Biomek FX, test articles were serially diluted (10 mM top, 3× dilution intervals) along with a reference inhibitor (1 mM top, 3× dilution intervals) in acoustic grade Labcyte plate. Then, using an acoustic dispenser (Labcyte550), compounds were added as serially diluted to plate with cells: 90 nL of serially diluted compounds per well. 90 nL DMSO is added to control wells. Test plates were incubated for 72 h in the humidified incubator at 37° C. with 5% CO2. 25 μL of reconstituted Cell titer Glo reagent was added to each well. Each test plate was then incubated for 20 min at room temperature. Luminescence was then recorded using Synergy Neo2Multi-mode Reader.
In order to calculate intersect IC50, a dose-response curve was fitted using nonlinear regression model with a sigmoidal dose response.
The formula for calculating surviving rate is shown below, and the intersect IC50 was calculated according to the dose-response curve generated by the software:
The compounds of interest were assessed cell viability in the HL-60 acute promyelocytic leukemia cell line (ATCC® CCL-240). […] Culture medium were purchased from ATCC, USA.

CCCCCc1cc(O)c2c(c1)OC(C)(C)C1CCC(CO)=CC21 (stereo not drawn) [11-hydroxy-THC]
pIC50 [1]: 9.00
pIC50 ([2]; agonist mode, Forskolin-stimulated cAMP, CNR2 CHO-K1 cells): 7.29
Selectivity for CB2 over CB1 (fold) ([2]; ratio of agonist IC50 values): 0.02 fold

CN[C@@H]1C[C@H]2O[C@@](C)([C@@H]1OC)n1c3ccccc3c3c4c(c5c6ccccc6n2c5c31)C(=O)NC4 [Staurosporine, staurosporine, reference compound]
pIC50 ([3]; Homo sapiens): ~6.68
Cell Viability (%) ([3]; 0.041 uM): 70.0%
Cell Viability (%) ([3]; 0.12 uM): 53.9%
Cell Viability (%) ([3]; 0.37 uM): 41.1%
Cell Viability (%) ([3]; 1.1 uM): 33.0%
Cell Viability (%) ([3]; 3.3 uM): 17.3%
Cell Viability (%) ([3]; 10 uM): 8.55%
Cell Viability (%) ([3]; 30 uM): 8.85%
pIC50 ([4]; Homo sapiens, PC-3): ~8.40
Cell Viability (%) ([4]; 0.0015 uM): 67.1%
Cell Viability (%) ([4]; 0.0046 uM): 43.2%
Cell Viability (%) ([4]; 0.014 uM): 34.5%
Cell Viability (%) ([4]; 0.041 uM): 12.7%
Cell Viability (%) ([4]; 0.12 uM): 10.3%
Cell Viability (%) ([4]; 0.37 uM): 9.5%
Cell Viability (%) ([4]; 1.1 uM): 8.4%
Cell Viability (%) ([4]; 3.3 uM): 8.1%
Cell Viability (%) ([4]; 10 uM): 6.8%
Cell Viability (%) ([4]; 30 uM): 7.1%
Cell Viability (%) ([5]; 0.014 uM): 66.6%
Cell Viability (%) ([5]; 0.041 uM): 36.3%
Cell Viability (%) ([5]; 0.12 uM): 27.7%
Cell Viability (%) ([5]; 0.37 uM): 18.7%
Cell Viability (%) ([5]; 1.1 uM): 13.9%
Cell Viability (%) ([5]; 3.3 uM): 11.7%
Cell Viability (%) ([5]; 10 uM): 10.4%
Cell Viability (%) ([5]; 30 uM): 9.6%
